Literature values in patent US7632656B2, “High performance liquid chromatography with an aqueous mobile phase for analysis of drug and its metabolite” (Cellseed Inc., priority 2003, dated 2009).

Conditions: listed with the structures of the CYP probe drugs; method not stated

In the case of `CCOc1ccc(NC(C)=O)cc1` [Phenacetin], the logP is listed as 0.985.
In the case of `CC12CCC(=O)C=C1CCC1C2CCC2(C)C(O)CCC12` (centres unmarked) [Testosterone], the logP is listed as 2.899.
